Paper PMC12225454, “Photo-clenbuterol: Optical Control of β2‑Adrenergic Receptor Signaling by Photoswitchable Ligand Efficacy” (Journal of Medicinal Chemistry, 2025)
“And” between values parts separate entries of the source, which are not always exact repeats. Equal entries are not always repeated.

Legend:
[1] = UV/vis absorption spectra before and after illumination; type: physicochemical; conditions: 25 μM in HBSS buffer containing 1% DMSO; for λmax (nm) PSS cis: n−π* transition, approximated from PSS cis composition; for λmax (nm) trans: π–π* transition of trans isomer
[2] = Photostationary state composition by LC-MS at isosbestic point; conditions: for PSS cis (% cis) / PSS trans (% trans): DMSO 10 mM, LC-MS at isosbestic point; for PSS cis (% cis): after 360 ± 20 nm (12d: 520 ± 12 nm); for PSS trans (% trans): after 434 ± 9 nm from PSS cis
[3] = Reversible isomerization cycles under alternating illumination (photobleaching resistance); conditions: 25 μM in HBSS buffer containing 1% DMSO; 365 ± 11 nm / 440 ± 25 nm
[4] = Photostationary state composition by 1H NMR; type: physicochemical
Source text: However, it has been computationally studied by Konrad et al. who calculated the n−π* band to be 444.5 nm for the cis isomer of the parent compound in the gas phase. […] The difference between calculated and experimental value could conceivably be the result of the buffer solvent not having been included in the calculations and/or the suboptimal trans to cis conversion at PSS cis (PSS cis = 66.3%). […] The PSS cis curve is slightly […], potentially enabling trans–cis isomerization at longer wavelengths. […] However, not unexpectedly given the low absorption at 560 nm, the illumination time required is much longer (hours versus 20 min with 360 nm illumination). Such longer illumination times would only be acceptable if the pharmacological differences between the isomers were much more pronounced, not requiring full conversions to PSS cis . […] The PSS cis and PSS trans values by LC–MS analysis (Figures B and S5) at the isosbestic point (376 nm) are 66.3% and 72.5%, respectively. These are similar to the 62.4% and 78.7% values obtained from ^1H NMR analysis, in which the well-resolved signal of the benzylic CH group allowed quantification of the PSS values (Figures C and S7).

β2-AR = β2-AR (Homo sapiens, UniProt P07550); test: FRET-based EPAC cAMP assay, ligand stimulation (agonist mode); type: cell-based
human β2-AR = target: T1, human β2-AR (Homo sapiens, UniProt P07550, E27Q/G16R); test: [3H]DHA competition radioligand binding on HEK293T membranes
T1 construct: Human β2AR (GenBank: NP_000015.1) in pcDNA3.1+ expression plasmid; expressed in transfected cells; host or cells: HEK293T cells, transient transfection with PEI; membranes prepared
T1 sequence (P07550 whole entry G16R/E27Q): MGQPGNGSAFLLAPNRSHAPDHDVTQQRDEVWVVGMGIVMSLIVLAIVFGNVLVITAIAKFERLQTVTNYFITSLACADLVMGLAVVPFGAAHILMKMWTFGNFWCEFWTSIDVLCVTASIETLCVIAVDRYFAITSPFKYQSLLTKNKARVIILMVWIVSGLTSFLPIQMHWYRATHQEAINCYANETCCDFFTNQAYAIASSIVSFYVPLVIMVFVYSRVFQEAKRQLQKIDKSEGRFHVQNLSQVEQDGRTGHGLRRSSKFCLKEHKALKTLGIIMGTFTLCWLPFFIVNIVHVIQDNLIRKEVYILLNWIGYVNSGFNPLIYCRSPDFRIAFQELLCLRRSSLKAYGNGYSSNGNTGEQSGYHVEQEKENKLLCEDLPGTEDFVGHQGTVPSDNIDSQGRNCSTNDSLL

Sequence of β2-AR (P07550 whole entry): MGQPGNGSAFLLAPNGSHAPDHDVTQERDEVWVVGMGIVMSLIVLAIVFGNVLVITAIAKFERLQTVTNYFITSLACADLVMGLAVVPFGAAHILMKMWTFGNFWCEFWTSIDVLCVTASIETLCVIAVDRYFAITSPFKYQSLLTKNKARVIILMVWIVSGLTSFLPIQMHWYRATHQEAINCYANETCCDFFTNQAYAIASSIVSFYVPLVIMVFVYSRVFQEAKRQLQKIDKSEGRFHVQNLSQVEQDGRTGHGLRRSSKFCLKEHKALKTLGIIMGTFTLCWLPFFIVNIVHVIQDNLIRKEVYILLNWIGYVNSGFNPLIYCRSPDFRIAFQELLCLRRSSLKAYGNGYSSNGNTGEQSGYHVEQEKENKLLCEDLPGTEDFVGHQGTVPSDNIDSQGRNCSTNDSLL

SMILES	λmax (nm) PSS cis [1] [nm]	λmax (nm) trans [1] [nm]	PSS cis (% cis) [2]	PSS trans (% trans) [2]	PSS cis value with 560 nm light ([2]; 560 nm illumination, LC-MS) [%]	resistance to photobleaching, dynamic isomerization cycles [3]	PSS cis value from 1H NMR analysis ([4]; 10 mM in DMSO-d6, 360 ± 20 nm) [%]	PSS trans value from 1H NMR analysis ([4]; 10 mM in DMSO-d6, 434 ± 9 nm after PSS cis) [%]	pEC50 trans (β2-AR)	α trans, intrinsic activity Emax (ligand)/Emax (isoprenaline) (β2-AR)	Ki (human β2-AR) [nM]
CC(C)(C)NCC(O)c1cc(Cl)c(/N=N/c2c(Cl)cccc2Cl)c(Cl)c1 (stereo not drawn) [Compound 12d, (E)-2-(tert-Butylamino)-1-(3,5-dichloro-4-((2,6-dichlorophenyl)-diazenyl)-phenyl)-ethan-1-ol]	441	293	38.5 ± 0.5%	94.1 ± 0.3%	–	–	–	–	–	–	–
CC(C)(C)NCC(O)c1ccc(/N=N/c2ccccc2)cc1 (stereo not drawn) [Compound 12a, (E)-2-(tert-Butylamino)-1-(4-(phenyldiazenyl)-phenyl)-ethan-1-ol]	425	323	94.6 ± 0.5%	71.8 ± 0.2%	–	–	–	–	–	–	–
CC(C)(C)NCC(O)c1cc(Cl)c(/N=N/c2ccccc2)c(Cl)c1 (stereo not drawn) [Compound 12b, (E)-2-(tert-Butylamino)-1-(3,5-dichloro-4-(phenyldiazenyl)phenyl)-ethan-1-ol]	417	306	66.3% and 66.3 ± 0.9%	72.5% and 72.5 ± 0.1%	74.9	at least 10 cycles	62.4	78.7	–	–	–
CC(C)(C)NCC(O)c1cc(Cl)c(N)c(C#N)c1 (stereo not drawn) [Compound 18, 2-Amino-5-(2-(tert-butylamino)-1-hydroxyethyl)-3-chlorobenzonitrile]	–	–	–	–	–	–	–	–	9.0 ± 0.0	0.8 ± 0.0	20
CC(C)(C)NCC(O)c1ccc(/N=N/c2ccccc2)c(Cl)c1 (stereo not drawn) [Compound 12c, (E)-2-(tert-Butylamino)-1-(3-chloro-4-(phenyldiazenyl)phenyl)-ethan-1-ol]	428	328	97.6 ± 0.1%	65.5 ± 0.2%	–	–	–	–	–	–	–
CC(C)(C)NCC(O)c1cc(Cl)c(/N=N/c2ccccc2)c(C#N)c1 (stereo not drawn) [Compound 12e, (E)-5-(2-(tert-Butylamino)-1-hydroxyethyl)-3-chloro-2-(phenyldiazenyl)-benzonitrile]	426	331	88.7 ± 0.8%	82.0 ± 0.4%	–	–	–	–	–	–	–
